Measurements from patent US9650616B2, “Methods for increasing grain yield” (University of Florida Research Foundation, Inc., priority 2014, dated 2017).
Changes are numbered by the printed parent chain.

Columns and labels:
[1] = target: T1, maize endosperm AGPase, large subunit variant GG (Q96G, D161G; numbering of SEQ ID NO: 20) (Zea mays, UniProt P55241+Q84PF5, D161G/Q96G); test: Apparent kinetic constants with 3-PGA, 37° C., GG; format: biochemical; details: read-out: ATP Km
T1 sequence (P55241 46-516 D161G/Q96G): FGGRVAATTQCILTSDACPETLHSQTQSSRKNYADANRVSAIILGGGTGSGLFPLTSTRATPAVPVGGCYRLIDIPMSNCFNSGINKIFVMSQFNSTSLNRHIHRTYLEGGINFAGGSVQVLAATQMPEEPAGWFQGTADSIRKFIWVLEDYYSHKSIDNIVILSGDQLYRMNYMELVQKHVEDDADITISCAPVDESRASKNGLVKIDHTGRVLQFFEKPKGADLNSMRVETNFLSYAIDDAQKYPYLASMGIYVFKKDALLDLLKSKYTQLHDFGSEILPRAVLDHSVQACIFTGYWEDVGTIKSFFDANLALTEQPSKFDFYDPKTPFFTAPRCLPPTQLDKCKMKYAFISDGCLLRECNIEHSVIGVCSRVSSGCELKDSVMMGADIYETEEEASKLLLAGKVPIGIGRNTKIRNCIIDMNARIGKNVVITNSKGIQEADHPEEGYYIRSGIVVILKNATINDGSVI
T1 sequence (Q84PF5 1-474): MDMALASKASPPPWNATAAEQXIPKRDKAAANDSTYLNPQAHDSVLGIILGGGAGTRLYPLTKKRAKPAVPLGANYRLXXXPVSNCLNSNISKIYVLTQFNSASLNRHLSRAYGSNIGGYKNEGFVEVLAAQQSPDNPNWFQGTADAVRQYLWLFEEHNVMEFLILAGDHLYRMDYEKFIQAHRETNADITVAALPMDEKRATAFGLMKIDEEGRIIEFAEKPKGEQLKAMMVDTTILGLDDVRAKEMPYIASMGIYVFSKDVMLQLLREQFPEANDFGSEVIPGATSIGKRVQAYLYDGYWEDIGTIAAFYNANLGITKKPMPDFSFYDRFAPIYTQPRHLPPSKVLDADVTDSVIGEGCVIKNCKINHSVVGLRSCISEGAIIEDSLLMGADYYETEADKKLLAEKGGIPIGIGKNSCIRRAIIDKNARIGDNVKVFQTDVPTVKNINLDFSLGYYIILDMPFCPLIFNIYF
Source text: (§1) The small and large subunit plasmids of maize endosperm AGPase (pMONcBt2 and pMONcSh2, respectively) (Giroux et al., 1996) were expressed in E. coli AC70R1-504 cells (Iglesias et al., 1993) as previously described (Boehlein et al., 2008).
(§2) An endpoint assay was used to determine the rate of the AGPase reaction by coupling the formation of PPi to a decrease in NADH concentration (Boehlein et al., 2008). […] The Michaelis constants (Km) were obtained by varying one substrate in the presence of saturating concentrations of the second substrate. The activation constants were obtained by varying the activator at fixed levels of both substrates. All reactions were performed at 37° C. and mixes were prewarmed before starting the reaction with enzyme. […] The absorbance at 340 nm was monitored after 30 min and the amount of PPi produced was determined from a standard curve using PPi in complete reaction mixtures lacking AGPase. Blank samples contained complete reaction mixtures without enzyme and the change in absorbance between the blank and the reaction was used to calculate the amount of PPi produced. […]
(§3) The apparent Michaelis constant and maximum velocity of each reaction was calculated from a V vs. S plots using nonlinear regression analysis and the following equation, v=VmaxS/(Km+S), where v is the measured velocity, Vmax is the maximum velocity, S is the substrate concentration. […]

[2] = target: T2, maize endosperm AGPase, large subunit variant GGR (Q96G, D161G, A443R; numbering of SEQ ID NO: 20) (Zea mays, UniProt P55241+Q84PF5, A443R/D161G/Q96G); test: Apparent kinetic constants with 3-PGA, 37° C., GGR; format: biochemical; details: read-out: ATP Km
T2 sequence (P55241 46-516 A443R/D161G/Q96G): T1 sequence (P55241 46-516 D161G/Q96G) with A398R
T2 sequence (Q84PF5 1-474): T1 sequence (Q84PF5 1-474)
Source text: as §1, §2, §3

[3] = tested on: maize endosperm AGPase, heat stable ISM mutants; test: Apparent kinetic constants with 3-PGA, 37° C., ISM mutants collectively; format: biochemical, Zea mays; details: mutants versus wt maize, in the presence of 3-PGA
Experimental: An endpoint assay was used to determine the rate of the AGPase reaction by coupling the formation of PPi to a decrease in NADH concentration (Boehlein et al., 2008). […] The Michaelis constants (Km) were obtained by varying one substrate in the presence of saturating concentrations of the second substrate. The activation constants were obtained by varying the activator at fixed levels of both substrates. All reactions were performed at 37° C. and mixes were prewarmed before starting the reaction with enzyme. Reactions were terminated by boiling the reaction mixes for 2 minutes followed by development with 200 μl of coupling reagent (25 mM imidazole pH 7.4, 4 mM MgCl2, 1 mM EDTA, 0.2 mM NADH, 0.725 U aldolase, 0.4 U triose phosphate isomerase, 0.6 U glycerophosphate dehydrogenase, 1 mM fructose 6-phosphate and 0.8 μg purified PPi-PFK per reaction). The absorbance at 340 nm was monitored after 30 min and the amount of PPi produced was determined from a standard curve using PPi in complete reaction mixtures lacking AGPase. Blank samples contained complete reaction mixtures without enzyme and the change in absorbance between the blank and the reaction was used to calculate the amount of PPi produced. Reactions were linear with time and enzyme concentration.
The apparent Michaelis constant and maximum velocity of each reaction was calculated from a V vs. S plots using nonlinear regression analysis and the following equation, v=VmaxS/(Km+S), where v is the measured velocity, Vmax is the maximum velocity, S is the substrate concentration. The activation constant (Ka) was obtained using the following equation: V=Vmin+Vmax*(X)/(Ka+X), where Vmin is the velocity in the absence of activator and Vmax is the change in activity from Vmin to the total velocity. X is the activator concentration, Ka is the activation constant. All linear regression was carried out using the software program Prism (Graph Pad, San Diego Calif.).
Each mutant, comprising 1, 2, 3 or 4 changes, was grown in a large scale culture, expressed and purified according to standard procedures (Boehlein et al., 2005). […] Thus, the effects of these mutations on the kinetic constants are minimal. Next, the activation constant, Ka, was determined for each of the mutant enzymes. Here a decrease in the Ka for each of the mutants of approximately 3-6 fold was observed. This property appears to stem from the D161G change, and includes all enzymes which carry this mutation (Table 8). To be certain the effect is the result of the D161G mutation, and not the result of other single mutant changes, Q96R and Q96G were purified and characterized.

In the case of `Nc1ncnc2c1ncn2[C@@H]1O[C@H](COP(=O)(O)OP(=O)(O)OP(=O)(O)O)[C@@H](O)[C@H]1O` [ATP], the Km [1] was 31 µM, the Km [2] was 57 µM and the “largest variation in Km” value [3] was “approximately two-fold”.
